One data set concerns MRSA ATCC 15187. Kind of data set: MIC, broth microdilution (CLSI), Alamar blue. Type of data set: cell-based, Methicillin-resistant S. aureus. To be noted: MRSA ATCC 15187, 24 hours at 37 °C, read-out: Minimum inhibitory concentration (MIC) MRSA. The text has this: The bacterial strains S. aureus ATCC 29213, MRSA ATCC 15187, E. coli ATCC 25922, and P. aeruginosa ATCC 27853 were obtained from ATCC (American Type Culture Collection). Cation-adjusted Mueller–Hinton broth (MHB; Becton–Dickinson, Cockeysville, MD) was used to determine the minimum inhibitory concentration (MIC). Mueller–Hinton agar (MHA; Becton–Dickinson) was used for minimum bactericidal concentration (MBC) studies. Alamar blue (Himedia) was used to detect the MIC value.
The antibacterial activity of the compounds against S. aureus ATCC 29213, MRSA ATCC 15187, E. coli ATCC 25922, and P. aeruginosa ATCC 27853 was determined through a broth microdilution method according to the guidelines of the Clinical and Laboratory Standards Institute (CLSI).[50] […] Growth control and media control were employed along with 2% DMSO as vehicle control.
In a 96-well flat bottom plate, the test compounds were two-fold serially diluted in Mueller Hinton Broth (MHB). The final concentrations of the compounds ranged from 100 to 0.08 μM. 100 μL of standardized bacterial inoculum with turbidity equivalent to 0.5 McFarland standard (1.5 × 10^8 CFU mL^−1) was diluted 1 : 100 (1.5 × 10^6 CFU mL^−1) in Mueller Hinton Broth and inoculated in the plates.[51] The plates were incubated for 24 hours at 37 °C. After incubation, 10 μL of freshly prepared Alamar blue (Himedia) was added to each well of the plate, and plates were further incubated at 37 °C for 30 minutes. After incubation, the fluorescence was measured at excitation/emission of 540–570/580–610 nm. The percentage inhibition and viability were calculated for the controls, and the Gompertz curve was utilized to estimate the minimum inhibitory concentration.

The nature of data set [1]: Cell viability assay (MTT). Type of data set: cell-based, murine. To be noted: mouse, RAW 264.7 macrophage cells; RAW 264.7 macrophage cell line, MTT assay. Here is the method: RAW 264.7 cells were acquired from the American type culture collection (ATCC, Manassas, VA) and cultured in Dulbecco's modified eagle's medium (DMEM, Gibco, Life Technologies, NY) supplemented with 10% fetal bovine serum (FBS) at 37 °C and 5% CO2. MTT dye (Himedia) was used to detect CC50 values. The antibiotics ciprofloxacin hydrochloride monohydrate (Himedia), kanamycin sulfate (Himedia), and vancomycin (Himedia) were used for reference in microbiological assays.
The effect of compounds (IBC, IBC-2, and IBC-3) on the viability of cells was evaluated at different concentrations against macrophage cell lines through the 3-(4,5-dimethylthiazol2-yl)-2, 5-diphenyltetrazolium bromide (MTT) assay. The RAW 264.7 cells are monocyte/macrophage-like cells originating from an Abelson leukemia virus-transformed cell line derived from BALB/c mice. Due to their reliability and consistency, these cell lines are widely utilized for both in vitro and in vivo analyses.[52] The MTT assay is a colorimetric assay used to measure the viability and cytotoxicity of cells. The cells (2 × 10^4 cells per well) were grown at 37 °C with 5% CO2 for 48 hours, then exposed to compounds with different concentrations. […] After 20–21 hours, 20 μL of MTT dye at 2.5 mg mL^−1 concentration was added to each well and incubated for 4 hours. 100 μL DMSO solubilized the water-insoluble purple and white formazan produced.[53] The formation of the formazan salt by mitochondrial dehydrogenases was measured at 570.0 nm after incubating for 20 min. The percentage cytotoxicity was calculated with respect to the untreated cells, and the CC50 value was calculated. CC50 was defined as the concentration of an inhibitor that reduces cellular activities by 50% compared to untreated control cultures. The CC50 values were calculated as the concentration where the absorbance was reduced by 50% using GraphPad Prism software.[54] The selectivity index (SI) determines the safety profile of the compound. It is calculated as the ratio of compound concentration at which 50% of cell growth is inhibited compared to untreated cells (CC50) to the effective inhibiting concentration against bacterial strain (MIC). The high SI (>10 fold of MIC) of a drug is proven to have a favorable safety profile.[28] Selectivity index (SI) = CC50 of the compound (μM)/MIC of the compound (μM).

The text below walks through data of paper PMC11484510, “Antibacterial activity of structurally diverse natural prenylated isobavachalcone derivatives” (RSC Advances, 2024).

The structures appear in SMILES notation. Converted amounts (≈) assume the structure as drawn. Where two headings read alike, the source gives them in different places.

In the case of `CC(C)=CCc1c(O)ccc2c1O/C(=C\c1ccc(O)cc1)C2=O` [IBC-3, (Z)-6-hydroxy-2-(4-hydroxybenzylidene)-7-(3-methylbut-2-en-1-yl)benzofuran-3(2H)-one], the MIC in the data set with MRSA ATCC 15187 and with MRSA ATCC 15187 (Staphylococcus aureus) was 6 µM (≈ 1.93 µg/mL) throughout. Further, in data set [1], it took 50 µM to reach half-maximal cytotoxicity (CC50).
